Assay results: patent publication US12329799B2, “Peptidyl inhibitors of calcineurin-NFAT interaction” (Ohio State Innovation Foundation, priority 2018, dated 2025)
Positions of bridges follow the written chain, without caps; N, C: chain ends. Non-standard residues stand in square brackets, D forms with d. Residues, ends and D or L forms follow the SMILES beside them. Chains are numbered I, II in the order given. *: point of attachment. 2Nal = N[C@@H](Cc1ccc2ccccc2c1)C(=O)O; Val(3-OH) = CC(C)(O)[C@H](N)C(=O)O; Tle = CC(C)(C)[C@H](N)C(=O)O; X1 = O=C(c1ccnc(Cl)c1Cl)*; AEEA = NCCOCCOCC(=O)O

Experiments:
HCT116 cell spheroids = test: Cellular entry and intracellular stability by MALDI-TOF MS imaging; assay type: cell-based; conditions: 5 μM, 24 h of incubation
Description: Intracellular Stability. HCT116 cell spheroids in RPMI-1640 medium supplemented with 10% FBS and 1% penicillin/streptomycin were treated with 5 μM CNI103 for 4 or 24 h. Spheroids were washed three times with warm DPBS, quickly frozen, embedded in a solid support and cryo-sectioned. Prior to analysis, sinapinic acid was sublimed onto individual slides, which were subsequently imaged using a Bruker ultrafleXtreme MALDI-TOF-TOF mass spectrometer. The spectra were analyzed for intact CNI103 as well as proteolytic degradation fragments of interest. The MS signal intensity data were used to generate Heatmaps, scaled relative to the most intense signal, for each time point and fragment.

[1] = Liver microsome stability assay; assay type: in vitro ADME; conditions: mouse liver microsome
Description: Liver microsome stability assay. Liver microsome stability was assessed using mouse microsome (cat. M1000, XenoTech). Ten mM stock solution of CNI103 was similarly prepared in DMSO. One hundred micromolar of CNI103 solution was prepared by diluting the DMSO stock in phosphate buffer (50 mM potassium phosphate, pH 7.4). To assay the stability, liver microsomes (final concentration 0.5 mg/mL) were mixed with testing samples gently and incubated at 37° C. for 5 min. At varying time points post reaction (0, 5, 15, 30, and 60 min), 25 microliter aliquots were withdrawn and each aliquot (25 microliter) was quenched with 300 μL of an internal standard solution (25 ng/mL terfenadine in 1:1 v/v methanol/acetonitrile) followed by vigorous vortexing and centrifugation. To assess metabolism by P450 enzymes, the microsome degradation reaction was supplemented with NADPH (final 1 mM) followed by gentle mixing. 100 μL aliquots of the reaction mixture were withdrawn at 0, 30, or 60 min, diluted two fold with distilled water, and subjected to LC-MS/MS analysis on a reversed-phase HPLC coupled with Sciex 4500 Q-trap based quantification.

Caco-2 cell monolayers = test: Caco-2 permeability assay; assay type: in vitro ADME
Description: (§1) Caco-2 permeability assay. To assay the permeability of test compounds by Caco-2 cell model, Caco-2 cells were cultured to confluency before being trypsinized and seeded onto filter transwell inserts at a density of 30,000 cells/well in DMEM medium. Cells were cultured in a humidified atmosphere with 5% CO2 at 37° C. After overnight attachment, cell medium was replaced with fresh medium at both apical and basolateral sides every other day. The cell monolayers are ready for the assay 20 days post seeding. […] The dosing solution at 10 μM was obtained by diluting 10 mM stock solution in HBSS medium (pH 7.4, 25 mM HEPES) freshly before the assay. Terfenadine (25 ng/mL) and Tolbutamide (50 ng/mL) were added into dosing solution as internal standards. […] The culture medium from either the basolateral side (plate B) or apical side (plate A) were aspirated and then rinsed with HBSS medium once. Afterwards, the dosing medium was added to either basolateral or apical side. Following the incubation, 100 microliter samples from both sides were harvested at time 0 and time 90 min. Samples were quenched with acetonitrile/methanol (1:1 v/v), centrifuged, and analyzed on a Shimadzu reversed-phase HPLC and Sciex API4500 Q trap instrument.
(§2) Permeability parameters were calculated using the following equations and shown in Table 10: Papp=(Conc.receiver,90 min*Volumereceiver)/(Time*Membrane Area*Conc.donor,0 min) Efflux Ratio=Papp[B to A]/Papp[A to B]

[2] = Caco-2 permeability assay; assay type: in vitro ADME; conditions: human, Caco-2, pH 7.4
Description: as §1, §2

[3] = Stability in simulated gastric fluid (SGF); assay type: in vitro ADME
Description: (§3) Stability of CNI103 in simulated gastric fluid (SGF) was evaluated by diluting CNI103 (final 5 μM) in FaSSGF buffer (pH 1.2), which was prepared from FaSSGF powder (cat no. FFF01, BioRelavant). Similarly, stability of CNI103 in simulated intestinal fluid (SIF) was evaluated by diluting CNI103 (final 5 μM) in FaSSIF buffer (pH 6.5), which was prepared from FaSSIF powder (cat no. FFF-1017-B, BioRelavant) supplemented with Lecithin and maleic acid. The solutions were incubated at 37° C. for 5, 15, 30, 60, or 120 min, and the concentration of remaining CNI103 was determined by LC/MS/MS analysis as described above.

[4] = Stability in simulated intestinal fluid (SIF); assay type: in vitro ADME
Description: as §3

mouse hepatocytes = test: Stability in mouse hepatocytes; assay type: in vitro ADME; conditions: 2 μM
Description: (§4) Stability of CNI103 in mouse hepatocytes. Hepatocyte stability was assessed by using mouse hepatocyte (cat. M005052, BioIVT). Mouse hepatocytes were revived following manufacturer's procedure with Cryopreserved Hepatocyte Recovery Medium and used for the assay when cell viability was greater than 70%. Testing compound (at 2 μM) was mixed with mouse hepatocytes at 37° C. in a humidified incubator with 5% CO2. Final hepatocyte cell density was 2 million per mL. […] of the resulting supernatant was diluted two fold with distilled water and analyzed by reversed-phase HPLC coupled with Sciex 4500 Q-trap based quantification.

[5] = Stability in mouse hepatocytes; assay type: in vitro ADME
Description: as §4

in vitro = in vitro ADME; design: dose or concentration left out as unconfirmed; conditions: mouse
Description: Plasma binding was assessed using mouse plasma obtained from in-life studies. CNI103 was diluted to […] in pre-warmed mouse plasma. The solution was added to the left chamber of a commercial plate based RED (rapid equilibrium dialysis) device. Isotonic sodium phosphate buffer (100 mM sodium phosphate, 100 mM sodium chloride, pH 7.4) was added to the outer chamber of the RED device and the plate was incubated at 37° C. for five hours. Aliquots of the buffer and the plasma were withdrawn before and after the incubation and the concentrations of free and bound test compound were determined by LC/MS/MS analysis. To test for plasma stability, the dosing solution was also incubated at 37° C. for 5 hours and the concentration of CNI103 was determined by LC/MS/MS analysis as described above.
The calculation of percentage binding is calculated using the following equations and the results are presented in Table 13: Binding %=(Cpe−Cb)/Cpe×100 • Cpe=Conc. of test compound in plasma at equilibrium • Cb=Conc. of test compound in buffer at equilibrium % Stability of test compound=(Conc. of stability sample/Conc. of time zero sample)×100 % Recovery=(Cpe+Cb)/Conc. of stability sample×100

CC[C@H](C)[C@H](NC(=O)[C@@H](NC(=O)c1ccnc(Cl)c1Cl)C(C)(C)C)C(=O)N[C@H](C(=O)N[C@H](C(=O)N[C@H](C(=O)N[C@@H](CCC(N)=O)C(=O)N[C@@H](Cc1c[nH]cn1)C(=O)N[C@H](CC(C)C)C(=O)N[C@@H](CO)C(=O)NCCOCCOCC(=O)N[C@@H](CCCCNC(=O)CC[C@@H]1NC(=O)[C@@H](CCCNC(=N)N)NC(=O)[C@H](CCCNC(=N)N)NC(=O)[C@@H](CCCNC(=N)N)NC(=O)[C@H](CCCNC(=N)N)NC(=O)[C@H](Cc2ccc3ccccc3c2)NC(=O)[C@@H](Cc2ccccc2)NC1=O)C(N)=O)[C@@H](C)O)[C@@H](C)CC)C(C)(C)O [CNI103, (DCNA)-Tle-Ile-Bhv-Ile-Thr-Gln-His-(D-Leu)-Ser-miniPEG-Lys{[cyclo-(Gln-(D-Arg)-Arg-(D-Arg)-Arg-(2-Nal)-(D-Phe)]}-NH2] (I: X1-[Tle]I[Val(3-OH)]ITQH[dL]S[AEEA]K-NH2 / II: cyclo([2Nal]R[dR]R[dR]E[dF]); amide I:11-II:6 (inferred); ring closure inferred)
intracellular degradation (HCT116 cell spheroids): No significant degradation product signal | remaining at 0.25 h ([1]; liver microsomes, pH 7.4, 15 min, read-out: % remaining (+NADPH)): 95.8% | remaining at 0.5 h ([1]; liver microsomes, pH 7.4, 30 min, read-out: % remaining (+NADPH)): 76% | remaining at 1 h ([1]; liver microsomes, pH 7.4, 60 min, read-out: % remaining (+NADPH)): 75.1% | % remaining (+NADPH) ([1]; 0 min): 100.0% | % remaining (−NADPH) ([1]; 0 min): 100.0% | % remaining (+NADPH) ([1]; 5 min): 131.1% | % remaining (−NADPH) ([1]; 30 min): 113.6% | % remaining (−NADPH) ([1]; 60 min): 70.8% | Pgp Substrate (Caco-2 cell monolayers): No | Papp A→B at 90 min, 10 μM ([2]; N = 2, 10 μM, 90 min): 7.5 ×10⁻⁶ cm/s | Papp B→A at 90 min, 10 μM ([2]; N = 2, 10 μM, 90 min): 2.1 ×10⁻⁶ cm/s | efflux ratio at 90 min, 10 μM ([2]; Papp[B to A]/Papp[A to B]): 0.3 | % remaining ([3]; SGF (FaSSGF, pH 1.2), 37° C., 0 min, n = 2): 100.00% | remaining at 5 min, 5 μM ([3]; simulated gastric fluid (FaSSGF), pH 1.2, SGF, 5 min): 93.7% | remaining at 0.25 h, 5 μM ([3]; simulated gastric fluid (FaSSGF), pH 1.2, SGF, 15 min): 87.4% | remaining at 0.5 h, 5 μM ([3]; simulated gastric fluid (FaSSGF), pH 1.2, SGF, 30 min): 88.3% | remaining at 1 h, 5 μM ([3]; simulated gastric fluid (FaSSGF), pH 1.2, SGF, 60 min): 106% | remaining at 2 h, 5 μM ([3]; simulated gastric fluid (FaSSGF), pH 1.2, SGF, 120 min): 103% | % remaining ([4]; SIF (FaSSIF, pH 6.5), 37° C., 0 min, n = 2): 100.00% | remaining at 5 min, 5 μM ([4]; simulated intestinal fluid (FaSSIF), pH 6.5, SIF, 5 min): 92.3% | remaining at 0.25 h, 5 μM ([4]; simulated intestinal fluid (FaSSIF), pH 6.5, SIF, 15 min): 109% | remaining at 0.5 h, 5 μM ([4]; simulated intestinal fluid (FaSSIF), pH 6.5, SIF, 30 min): 109% | remaining at 1 h, 5 μM ([4]; simulated intestinal fluid (FaSSIF), pH 6.5, SIF, 60 min): 95.9% | remaining at 2 h, 5 μM ([4]; simulated intestinal fluid (FaSSIF), pH 6.5, SIF, 120 min): 75.6% | % remaining (mouse hepatocytes; 0 min): 100.00% | % remaining (mouse hepatocytes; 90 min): 141.77% | % remaining (mouse hepatocytes; 120 min): 124.89% | remaining at 0.25 h, 2 μM ([5]; 15 min): 103% | remaining at 0.5 h, 2 μM ([5]; 30 min): 101% | remaining at 1 h, 2 μM ([5]; 60 min): 120% | recovery at 5 hours (in vitro; pH 7.4): 130% | remaining at 5 h (in vitro; plasma): 110% | fraction unbound at 5 h (in vitro; plasma, pH 7.4): 0.024
